Entries after “also recorded” stand apart in the source; their conditions may differ.
How the values were obtained:
[1] = tested on: spontaneous hypertensive rats rendered ischemic; test: Experimental model of cerebral ischemia (tandem CCA/MCA occlusion), infarct volume; format: in vivo, rat
Protocol: Male spontaneous hypertensive rats (Charles River) weighing between 250–300 g were weighed and then anesthetized with ketamine (100 mg/ml)/xylazine (20 mg/ml) cocktail (1.2 ml/kg; i.p.). The level of anesthetic was assessed by corneal reflex (air puff to eye) and leg jerk in response to tail or foot pinch. Once the rat was anesthetized, it was placed on a small animal surgical board and restrained during the surgical procedure. The rat's body temperature was monitored continuously with a rectal probe and maintained at 37° C. with a homeostatic heating pad.
Rats were rendered ischemic by tandem occlusion of the left common carotid artery and the left middle cerebral artery for 2 h followed by 22 h of reperfusion using a modification of the technique described by Brint and co-workers (J. Cereb Blood Flow Metab 8:474–485, 1988). Specifically, the left CCA was isolated through an incision in the ventral surface of the neck. For isolation of the ipsilateral MCA, a second incision was made between the lateral canthus of the left eye and the corresponding external auditory canal to bare the underlying skull. […]
Twenty-hours prior to the onset of ischemia, an osmotic mini-pump (Model 1003D; Alza) filled with vehicle or EPO was placed between the scapula of the rat. […] Twenty-two hours later, the rats were evaluated for behavioral performance, a blood sample was collected for terminal plasma levels of EPO and then the rat was euthanized, brain removed, sectioned and stained for histological analysis.
(§1) On Day One, the rats were rendered ischemic as described above. […] Twenty-two hours later, the rats were evaluated for behavioral performance, a blood sample was collected for terminal plasma levels of EPO and then the rat was euthanized, brain removed, sectioned and stained for histological analysis.
as §1, with “analysis. […]” for “analysis.”

[2] = tested on: rat cerebral cortical neurons; test: Glutamate toxicity assay in primary cortical cultures; format: cell-based
Text: Dissociated hippocampal and cortical cell cultures were established from embryonic day 18 rat fetuses as previously described (Mattson et al., 1994). Briefly, fetuses were removed via cesarean section from pregnant moms (Sprague-Dawley) anesthetized with halothane according to the AVMA Panel on Euthanasia. Pups were decapitated and the brains were removed and placed in HEPES-buffered Hank's Balanced Salt solution (HBSS; Gibco). The hippocampi and cortices were dissected out and pooled according to tissue-type. Tissue was trypsinized for 15 min (1 mg/ml trypsin-HBSS; Worthington), rinsed with fresh HBSS, incubated in trypsin inhibitor (1 mg/ml; Sigma) for 5 min, rinsed again with fresh HBSS and then triturated in 1 ml fresh HBSS with a fire-polished glass pipette. Dissociated cells were seeded at 30,000 cells/well onto poly-D-lysine coated 96-well plates (Collaborative BioScience). Each well contained 100 μl of Eagle's Minimal Essential Media (MEM; Gibco) supplemented with 26 mM NaHCO3 (Sigma), 56 mM glucose (Sigma), 15 mM KCl (Sigma), 1 mM sodium pyruvate (Sigma), 1.1 mM L-glutamine (Sigma), 10% (v/v) heat-inactivated fetal bovine serum (Hyclone), and 0.001% gentamicin sulfate (Sigma) (pH 7.4). Cells were allowed to attach for 24 h in a humidified 37° C. 5% CO2 incubator before experimental treatment. The culture media was aspirated and exchanged with fresh media every three days.
Cortical cells were seeded at 200,000 cells/dish onto polyethylenimine-coated 35 mm culture dishes. Each dish contained 1.5 ml MEM supplemented as described above. On the seventh day in culture, four fields per pre-marked dish were visualized with a Nikon Diaphot inverted microscope (10×magnification) and photographed prior to experimental treatment. […] Cell survival was measured by counting viable cells in each field pre- and post-experimental treatment. […] Data were expressed as percent of control (vehicle; mean±SD).

EPO: purified, recombinant human EPO (rhEPO), formulated and distributed under the trademarks EPREX, ERYPO or PROCRIT
infarct volume / protection against ischemic injury ([1]; Study I: 132 or 1321 U/day continuous iv infusion via osmotic mini-pump, started before ischemia): significantly reduced infarct volume; also recorded: protects against ischemic injury | protection against ischemic damage ([1]; Study II: single iv bolus 15 min post-occlusion, 1000, 2500 or 5000 U/kg): did not protect against ischemic damage; also recorded: does not protect against ischemic injury | infarct volume / protection against ischemic injury ([1]; Study III: repeat iv bolus 2500 U/kg at 15 min, 2 h, 4 h and 6 h post-occlusion): significant decrease in infarct volume; also recorded: protects against ischemic injury | concentration of greatest neuroprotective effect ([2]; cell survival greater than or equal to vehicle (no glutamate) treated cultures): greatest effects observed at pM concentrations | neuronal survival / protection against glutamate toxicity (in words) ([2]; pretreatment 24 h prior to 100 μM glutamate): significant increase in neuronal survival; also recorded: protects rat cerebral cortical neurons against glutamate toxicity | cell survival, maximal increase over parallel cultures treated with glutamate alone ([2]; pretreatment 24 h prior to 100 μM glutamate, counted 24 h post-glutamate): approximately 200%

Reference: patent US7259146B2, “Neuroprotective peptides” (Ortho-McNeil Pharmaceutical, Inc., priority 2000, dated 2007)
